Reference: ChEMBL document CHEMBL4002552, “Discovery of novel piperidine-substituted indolylarylsulfones as potent HIV NNRTIs via structure-guided scaffold morphing and fragment rearrangement” (Eur J Med Chem, 2017)
Active and inactive are the calls of the source. The calls are words filed in the database; no cut-off is given here.

Key:
[1] = system: Human immunodeficiency virus 1; assay: Potency index, ratio of nevirapine EC50 to test compound EC50 for HIV1 3B expressing wild type reverse transcriptase; format: functional
[2] = system: Human immunodeficiency virus 1; assay: Antiviral activity against HIV1 RES056 expressing reverse transcriptase mutant infected in human MT4 cells assessed as protection against virus-induced cytopathic effect after 5 days by MTT assay; format: functional, cell-based; conditions: Human immunodeficiency virus 1, RES056, MT4, 120 h
[3] = system: Human immunodeficiency virus 1; format: functional, cell-based; conditions: Human immunodeficiency virus 1, MT4, 120 h
[4] = system: Human immunodeficiency virus 1; assay: microbe, parasite or virus in culture; conditions: Human immunodeficiency virus 1, MT4, 120 h
Description: Antiviral activity against HIV1 expressing reverse transcriptase L100I mutant infected in human MT4 cells assessed as protection against virus-induced cytopathic effect after 5 days by MTT assay

[5] = Cytotoxicity against human MT4 cells assessed as decrease in cell viability after 5 days by MTT assay; format: cell-based
[6] = system: Human immunodeficiency virus 1; assay: Antiviral activity against HIV1 expressing reverse transcriptase E138K mutant infected in human MT4 cells assessed as protection against virus-induced cytopathic effect after 5 days by MTT assay; format: functional, cell-based; conditions: Human immunodeficiency virus 1, MT4, 120 h
[7] = system: Human immunodeficiency virus 1; assay: microbe, parasite or virus in culture; conditions: Human immunodeficiency virus 1, 3B, MT4, 120 h
Description: Antiviral activity against HIV1 3B expressing wild type reverse transcriptase infected in human MT4 cells assessed as protection against virus-induced cytopathic effect after 5 days by MTT assay

[8] = system: Human immunodeficiency virus 1; format: functional, cell-based; conditions: Human immunodeficiency virus 1, MT4, 120 h; remark: listed apart in the source
[9] = system: Human immunodeficiency virus 2; assay: Antiviral activity against HIV2 ROD infected in human MT4 cells assessed as protection against virus-induced cytopathic effect after 5 days by MTT assay; format: functional, cell-based; conditions: ISOLATE ROD
[10] = system: Human immunodeficiency virus 1; assay: Resistance ratio of EC50 for HIV1 expressing reverse transcriptase L100I mutant to EC50 for HIV1 3B expressing wild type reverse transcriptase; format: functional
[11] = system: Human immunodeficiency virus 1; assay: Potency index, ratio of delavirdine EC50 to test compound EC50 for HIV1 3B expressing wild type reverse transcriptase; format: functional
in vitro [12] = conditions: human, MT4 cells
Description: Selectivity index, ratio of CC50 for human MT4 cells to EC50 for HIV1 expressing reverse transcriptase F227L/V106A double mutant

in vitro [13] = conditions: human, MT4 cells; remark: listed apart in the source
Description: Selectivity index, ratio of CC50 for human MT4 cells to EC50 for HIV1 expressing reverse transcriptase Y188L mutant

[14] = system: Human immunodeficiency virus 1; format: functional, cell-based; conditions: Human immunodeficiency virus 1, MT4, 120 h; remark: listed apart in the source
in vitro [15] = conditions: human, MT4 cells; remark: listed apart in the source
Description: Selectivity index, ratio of CC50 for human MT4 cells to EC50 for HIV1 expressing reverse transcriptase K103N mutant

in vitro [16] = conditions: human, MT4 cells; remark: listed apart in the source
Description: Selectivity index, ratio of CC50 for human MT4 cells to EC50 for HIV1 RES056 expressing reverse transcriptase mutant

in vitro [17] = conditions: human, MT4 cells; remark: listed apart in the source
Description: Selectivity index, ratio of CC50 for human MT4 cells to EC50 for HIV1 expressing reverse transcriptase Y181C mutant

[18] = system: Human immunodeficiency virus 1; assay: Antiviral activity against HIV1 expressing reverse transcriptase K103N mutant infected in human MT4 cells assessed as protection against virus-induced cytopathic effect after 5 days by MTT assay; format: functional, cell-based; conditions: Human immunodeficiency virus 1, MT4, 120 h
in vitro [19] = conditions: human, MT4 cells; remark: listed apart in the source
Description: Selectivity index, ratio of CC50 for human MT4 cells to EC50 for HIV1 expressing reverse transcriptase L100I mutant

in vitro [20] = conditions: human, MT4 cells; remark: listed apart in the source
Description: Selectivity index, ratio of CC50 for human MT4 cells to EC50 for HIV1 expressing reverse transcriptase E138K mutant

in vitro [21] = conditions: human, MT4 cells; remark: listed apart in the source
Description: Selectivity index, ratio of CC50 for human MT4 cells to EC50 for HIV1 3B expressing wild type reverse transcriptase

[22] = system: Human immunodeficiency virus 1; assay: Resistance ratio of EC50 for HIV1 expressing reverse transcriptase K103N mutant to EC50 for HIV1 3B expressing wild type reverse transcriptase; format: functional
[23] = Inhibition of recombinant wild type HIV1 reverse transcriptase using poly (A).oligo (dT)15 as template/primer assessed as decrease in biotin-dUTP incorporation after 1 hr by ELISA; parameters: species or system Human immunodeficiency virus 1

Compound: Cc1cc(C)cc(S(=O)(=O)c2c(C(=O)NC3CCN(CCO)CC3)[nH]c3ccc(Br)cc23)c1
- Ratio EC50 [1]: 20
- EC50 [2]: > 6300 nM
- EC50 [3]: 220 nM
- EC50 [4]: 17 nM
- CC50 at 120 h [5]: 6300 nM
- EC50 [6]: 140 nM
- EC50 [7]: 6 nM
- EC50 [8]: 130 nM
- Activity [9]: inactive
- Ratio EC50 [10]: 2.8
- Ratio EC50 [11]: 4
- selectivity ratio (in vitro [12]): 28
- selectivity ratio (in vitro [13]): < 1
- EC50 [14]: > 6300 nM
- selectivity ratio (in vitro [15]): 74
- selectivity ratio (in vitro [16]): < 1
- selectivity ratio (in vitro [17]): 48
- EC50 [18]: 84 nM
- selectivity ratio (in vitro [19]): 368
- selectivity ratio (in vitro [20]): 46
- selectivity ratio (in vitro [21]): 1000
- Ratio EC50 [22]: 14

Compound: CCOC(=O)CCN1CCC(CNC(=O)c2[nH]c3ccc(Cl)cc3c2S(=O)(=O)c2cc(C)cc(C)c2)CC1
- CC50 at 120 h [5]: 19200 nM
- IC50 [23]: 10100 nM

Compound: CC(C)Nc1cccnc1N1CCN(C(=O)c2cc3cc(NS(C)(=O)=O)ccc3[nH]2)CC1 [DELAVIRDINE]
- EC50 [2]: ≥ 37000 nM
- EC50 [3]: 2600 nM
- EC50 [4]: 3500 nM
- CC50 at 120 h [5]: > 43800 nM
- EC50 [6]: 70 nM
- EC50 [7]: 24 nM
- EC50 [8]: 1900 nM
- selectivity ratio (in vitro [12]): 17
- selectivity ratio (in vitro [13]): 81
- EC50 [14]: 550 nM
- selectivity ratio (in vitro [15]): 18
- selectivity ratio (in vitro [17]): 23
- EC50 [18]: 2500 nM
- selectivity ratio (in vitro [19]): 13
- selectivity ratio (in vitro [20]): 634
- selectivity ratio (in vitro [21]): 1880

Compound: O=C1Nc2ccc(Cl)cc2[C@@](C#CC2CC2)(C(F)(F)F)O1 [EFAVIRENZ]
- EC50 [2]: 110 nM
- EC50 [3]: 76 nM
- CC50 at 120 h [5]: > 6300 nM
- EC50 [8]: 5 nM
- EC50 [14]: 92 nM
- EC50 [18]: 98 nM

Compound: Cc1ccnc2c1NC(=O)c1cccnc1N2C1CC1 [NEVIRAPINE]
- EC50 [2]: 2200 nM
- EC50 [3]: 3500 nM
- CC50 at 120 h [5]: > 15000 nM
- EC50 [6]: 160 nM
- EC50 [8]: 3800 nM
- IC50 [23]: 2800 nM
- EC50 [14]: 4400 nM
- EC50 [18]: 3600 nM

Compound: Cc1cc(C#N)cc(C)c1Oc1nc(Nc2ccc(C#N)cc2)nc(N)c1Br [ETRAVIRINE]
- EC50 [2]: 34 nM
- EC50 [4]: 9 nM
- EC50 [6]: 11 nM
- EC50 [8]: 14 nM
- IC50 [23]: 1100 nM
- EC50 [14]: 15 nM

Compound: Cc1cc(C)cc(S(=O)(=O)c2c(C(=O)NCC3CCN(CCO)CC3)[nH]c3ccc(Cl)cc23)c1
- EC50 [2]: > 6700 nM
- EC50 [3]: 620 nM
- EC50 [4]: 110 nM
- CC50 at 120 h [5]: 6700 nM
- EC50 [6]: 300 nM
- EC50 [7]: 32 nM
- EC50 [8]: 560 nM
- Activity [9]: inactive
- selectivity ratio (in vitro [12]): 11
- selectivity ratio (in vitro [13]): < 1
- EC50 [14]: > 6700 nM
- selectivity ratio (in vitro [15]): 21
- selectivity ratio (in vitro [16]): < 1
- selectivity ratio (in vitro [17]): 12
- EC50 [18]: 320 nM
- selectivity ratio (in vitro [19]): 59
- selectivity ratio (in vitro [20]): 22
- selectivity ratio (in vitro [21]): 205
